The values that follow come from PMC9498203, “Characterization and Preliminary Application of a Novel Lipoxygenase from Enterovibrio norvegicus” (Foods, 2022).

The target in this test is T1, EnLOX (Enterovibrio norvegicus, UniProt A0A1I5T4S6).
T1 construct: gene SAMN03084138_03074; E. coli BL21(DE3); Ni-NTA purified
T1 sequence (A0A1I5T4S6 1-726): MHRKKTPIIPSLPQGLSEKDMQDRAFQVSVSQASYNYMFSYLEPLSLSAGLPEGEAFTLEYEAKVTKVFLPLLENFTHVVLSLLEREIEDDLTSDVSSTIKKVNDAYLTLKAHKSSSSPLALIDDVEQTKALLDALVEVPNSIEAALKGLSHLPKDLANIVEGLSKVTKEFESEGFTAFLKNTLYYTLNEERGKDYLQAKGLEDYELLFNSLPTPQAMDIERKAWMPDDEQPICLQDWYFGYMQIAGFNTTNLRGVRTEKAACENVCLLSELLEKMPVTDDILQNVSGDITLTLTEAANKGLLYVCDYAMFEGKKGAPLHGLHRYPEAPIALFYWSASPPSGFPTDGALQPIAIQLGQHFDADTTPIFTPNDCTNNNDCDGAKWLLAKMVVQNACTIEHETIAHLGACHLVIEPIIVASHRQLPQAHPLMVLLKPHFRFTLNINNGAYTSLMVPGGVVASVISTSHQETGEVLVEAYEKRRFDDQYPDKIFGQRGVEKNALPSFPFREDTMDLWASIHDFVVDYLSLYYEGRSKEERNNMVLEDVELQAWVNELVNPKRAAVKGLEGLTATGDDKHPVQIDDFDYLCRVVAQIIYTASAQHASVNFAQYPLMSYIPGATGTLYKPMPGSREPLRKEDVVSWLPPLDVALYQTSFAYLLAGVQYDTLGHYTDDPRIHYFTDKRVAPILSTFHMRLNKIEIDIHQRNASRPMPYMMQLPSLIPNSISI
In words: absorbance at […] nm, Michaelis-Menten nonlinear fit. In kind it is biochemical. As to conditions: 20 mmol L^−1 Tris-HCl, pH 8.0, 50 °C.

As usually defined, the Km is the concentration of substrate that gives half-maximal velocity.

Consider `CC/C=C\C/C=C\C/C=C\CCCCCCCC(=O)O` [ALA, α-linolenic acid], for which the Km was determined as 2.32 µM.

Regarding `CCCCC/C=C\C/C=C\C/C=C\CCCCC(=O)O` [GLA, γ-linolenic acid], the Km came out at 8.79 µM.
